# Results from ChEMBL document CHEMBL1201862, “PubChem BioAssay data set” (2004).
# The source made the active and inactive calls.
# Columns and labels:
# [1] = biological target: NAD-dependent protein deacylase sirtuin-5, mitochondrial (Homo sapiens, UniProt Q9NXA8); experiment: sirtuin-5 deacylation blockers, concentration series – biochemical, fluorescence imaging, cherry-pick, set 5, dose response (AID 720591);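 note: desuccinylation of succinyl peptide AMC substrate read as fluorescence after trypsin release; potency of inhibitors that lower fluorescence and may act on trypsin instead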
# Fibrinogen beta chain [2] = biological target: T1, Fibrinogen beta chain (Homo sapiens, UniProt P02675); experiment: Fluorescence polarization-based biochemical high throughput dose response assay to identify inhibitors that disrupt the binding of a cyclic peptide (Tn6) to the fibrin proteolytic product D-Dimer and fragment E complex [DD(E )].
# [3] = biological target: Peroxisome proliferator-activated receptor gamma/Nuclear receptor coactivator 1 (Homo sapiens, UniProt P37231); experiment: TR-FRET dose response biochemical High Throughput Screening assay for agonists of the steroid receptor coactivator 1 (SRC-1) recruitment by the peroxisome proliferator-activated receptor gamma (PPAR gamma): non-selective agonists. [Related pubchem assays (depositor defined):AID1300, AID1808, AID504735, AID631]; type: protein assay
# [4] = biological target: T2, Polyadenylate-binding protein 1 (Homo sapiens, UniProt P11940); experiment: MLLE binding blockers, Cy5 peptide tracer – biochemical, fluorescence polarization, Cy5-PAM2 peptide, secondary, miRNA deadenylation inhibitor project, dose response (AID 602260); type: functional; settings: read-out: IC50_Mean
# [5] = biological target: Peroxisome proliferator-activated receptor gamma/Nuclear receptor coactivator 2 (Homo sapiens, UniProt P37231); experiment: (§1) TR-FRET dose response biochemical High Throughput Screening assay for agonists of the steroid receptor coactivator 2 (SRC-2) recruitment by the peroxisome proliferator-activated receptor gamma (PPAR gamma): non-selective agonists. [Related pubchem assays: 1297, 1032 ]; type: functional
# [6] = biological target: Peroxisome proliferator-activated receptor gamma/Nuclear receptor coactivator 3 (Homo sapiens, UniProt P37231); experiment: as §1, with “3 (SRC-3)” for “2 (SRC-2)”, “1301 (Confirmation screen.), 1048 (Primary screen.)]” for “1297, 1032 ]”; type: functional
# [7] = biological target: T2, Polyadenylate-binding protein 1; experiment: MLLE domain peptide-binding blockers, IC50 – biochemical, fluorescence polarization, FITC-PAM2 peptide, dose response (AID 602259); type: functional; settings: read-out: IC50_Mean
# Fibrinogen beta chain [8] = biological target: T1, Fibrinogen beta chain; experiment: Fluorescence polarization-based biochemical high throughput dose response assay to identify inhibitors that disrupt the binding of a cyclic peptide (Tn7) to the fibrin proteolytic product D-Dimer and fragment E complex [DD(E )].
# Nonstructural protein 1 = Nonstructural protein 1 (Influenza A virus, UniProt Q194T2); type: functional, Influenza A virus (A/California/07/2009(H1N1))
# [9] = biological target: C-X-C chemokine receptor type 4 (Homo sapiens, UniProt P61073); experiment: SAR analysis of small molecule antagonists of the CXCR6 receptor using a CXCR4 receptor luminescent beta-arrestin counterscreen.; type: functional
# [10] = biological target: C-C chemokine receptor type 6 (Homo sapiens, UniProt P51684); experiment: SAR analysis of small molecule antagonists of the CXCR6 receptor using a CCR6 receptor luminescent beta-arrestin counterscreen.; type: functional
# [11] = HEK293 Cytotoxicity Assay Measured in Cell-Based System Using Plate Reader - 7071-01_Inhibitor_Dose_CherryPick_Activity_Set2.; type: functional
# HEK293 = experiment: viability loss in HEK293T cells – cell-based, ATP luminescence, cherry-pick samples, cytotoxicity control, dose response (AID 687005); type: functional; settings: Homo sapiens;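 note: cells exposed to compound for 48 hours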
# [12] = biological target: Potassium channel subfamily K member 3 (Homo sapiens, UniProt O14649); experiment: inhibition of human KCNK3 channel flux – CHO cells, FluxOR thallium flux, SAR follow-up (AID 652212); type: functional
# Streptococcus = experiment: GAS UMAA2166 growth inhibition – luminescence, BacTiterGlo, counter-screen for streptokinase expression inhibitor project, dose response (AID 1915); type: functional, organism-based;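 note: potency for reduction of bacterial viability or growth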
# [13] = system: Streptococcus sp. 'group A'; experiment: Streptococcus pyogenes SK(-)GAS viability under kanamycin – luminescence, BacTiterGlo, confirmation, counter-screen for streptokinase expression inhibitor project, dose response (AID 1900); type: functional, organism-based
# [14] = biological target: Disintegrin and metalloproteinase domain-containing protein 17 (Homo sapiens, UniProt P78536); experiment: inhibition of ADAM17 substrate cleavage – biochemical, quenched FRET substrate, counter-screen for ADAM10 exosite inhibitor project, dose response (AID 743253)
# Streptokinase A = biological target: T3, Streptokinase A (Streptococcus pyogenes serotype M1, UniProt P10520); experiment: viability-normalized secreted streptokinase activity reduction – plasminogen activation absorbance, OD405, dose response (AID 1914); type: functional, Streptococcus pyogenes M1 GAS;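 note: secreted streptokinase activity via plasminogen activation per viability signal from cell pellet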
# T3 sequence (P10520 whole entry): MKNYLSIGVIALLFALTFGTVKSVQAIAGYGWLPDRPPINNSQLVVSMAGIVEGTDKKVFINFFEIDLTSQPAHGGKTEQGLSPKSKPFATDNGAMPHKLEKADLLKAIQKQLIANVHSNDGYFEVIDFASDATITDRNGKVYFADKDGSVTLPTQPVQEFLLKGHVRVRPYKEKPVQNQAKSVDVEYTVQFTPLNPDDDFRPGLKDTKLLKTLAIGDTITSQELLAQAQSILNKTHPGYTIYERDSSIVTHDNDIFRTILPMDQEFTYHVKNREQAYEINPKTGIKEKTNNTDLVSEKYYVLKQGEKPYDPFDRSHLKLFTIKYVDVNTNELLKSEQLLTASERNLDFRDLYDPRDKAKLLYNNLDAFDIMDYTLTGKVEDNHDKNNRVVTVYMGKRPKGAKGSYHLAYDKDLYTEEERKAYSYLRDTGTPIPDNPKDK
# INS1 = experiment: INS-1E survival protection against cytokine death – cell-based, luminescence, retest, dose response (AID 449756); type: functional; settings: Rattus norvegicus;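 note: cell death triggered by IL-1 beta plus TNF-alpha plus IFN-gamma mixture; protective hits raise ATP signal compared with cytokine alone wells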
# [15] = biological target: E3 ubiquitin-protein ligase UHRF1 (Homo sapiens, UniProt Q96T88); experiment: Counterscreen for inhibitors of 5-meCpG-binding domain protein 2 (MBD2): TRFRET-based biochemical high throughput dose response assay to identify inhibitors of binding of ubiquitin-like with PHD and ring finger domains 1 (UHRF1) to methylated oligonucleotide.
# T2 sequence (P11940 whole entry): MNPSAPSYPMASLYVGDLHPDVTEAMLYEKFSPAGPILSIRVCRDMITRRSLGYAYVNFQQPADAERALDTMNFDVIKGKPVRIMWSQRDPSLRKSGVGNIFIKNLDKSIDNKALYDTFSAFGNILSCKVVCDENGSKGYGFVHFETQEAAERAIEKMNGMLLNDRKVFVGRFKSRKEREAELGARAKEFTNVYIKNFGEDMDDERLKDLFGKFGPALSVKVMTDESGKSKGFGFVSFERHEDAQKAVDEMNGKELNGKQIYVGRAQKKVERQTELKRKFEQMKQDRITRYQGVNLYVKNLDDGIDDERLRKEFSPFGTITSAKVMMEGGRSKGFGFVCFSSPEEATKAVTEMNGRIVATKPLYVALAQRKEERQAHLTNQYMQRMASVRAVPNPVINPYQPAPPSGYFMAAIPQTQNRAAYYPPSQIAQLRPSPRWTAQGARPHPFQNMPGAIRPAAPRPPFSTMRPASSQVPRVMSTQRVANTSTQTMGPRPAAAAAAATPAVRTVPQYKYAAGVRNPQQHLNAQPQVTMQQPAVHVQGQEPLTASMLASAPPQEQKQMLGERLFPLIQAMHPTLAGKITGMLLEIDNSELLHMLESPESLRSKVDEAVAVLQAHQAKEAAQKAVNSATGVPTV
# T1 sequence (P02675 whole entry, the tested form may be a part): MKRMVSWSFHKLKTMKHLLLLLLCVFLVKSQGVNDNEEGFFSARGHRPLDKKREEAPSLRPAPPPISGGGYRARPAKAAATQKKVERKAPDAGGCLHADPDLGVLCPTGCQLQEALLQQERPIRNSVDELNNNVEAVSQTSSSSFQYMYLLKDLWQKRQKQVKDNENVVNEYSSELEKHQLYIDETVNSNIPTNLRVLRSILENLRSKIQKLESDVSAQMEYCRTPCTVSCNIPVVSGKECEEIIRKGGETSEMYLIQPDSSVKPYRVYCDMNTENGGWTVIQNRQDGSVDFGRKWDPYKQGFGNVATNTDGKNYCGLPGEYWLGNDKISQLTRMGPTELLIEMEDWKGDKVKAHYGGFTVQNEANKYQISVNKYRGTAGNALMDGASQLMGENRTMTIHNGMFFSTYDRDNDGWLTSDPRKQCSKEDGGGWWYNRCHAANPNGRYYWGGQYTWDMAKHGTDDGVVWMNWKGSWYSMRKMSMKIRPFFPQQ
# Sequence of NAD-dependent protein deacylase sirtuin-5, mitochondrial (Q9NXA8 whole entry, the tested form may be a part): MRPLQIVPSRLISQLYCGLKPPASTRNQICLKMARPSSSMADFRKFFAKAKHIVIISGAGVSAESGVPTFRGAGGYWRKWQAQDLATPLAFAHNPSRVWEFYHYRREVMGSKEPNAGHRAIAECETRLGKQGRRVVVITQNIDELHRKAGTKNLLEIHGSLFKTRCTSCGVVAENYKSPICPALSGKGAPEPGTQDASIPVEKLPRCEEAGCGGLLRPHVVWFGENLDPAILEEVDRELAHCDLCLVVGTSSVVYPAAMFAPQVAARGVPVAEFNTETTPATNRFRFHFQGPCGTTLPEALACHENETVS
# Sequence of Disintegrin and metalloproteinase domain-containing protein 17 (P78536 whole entry, the tested form may be a part): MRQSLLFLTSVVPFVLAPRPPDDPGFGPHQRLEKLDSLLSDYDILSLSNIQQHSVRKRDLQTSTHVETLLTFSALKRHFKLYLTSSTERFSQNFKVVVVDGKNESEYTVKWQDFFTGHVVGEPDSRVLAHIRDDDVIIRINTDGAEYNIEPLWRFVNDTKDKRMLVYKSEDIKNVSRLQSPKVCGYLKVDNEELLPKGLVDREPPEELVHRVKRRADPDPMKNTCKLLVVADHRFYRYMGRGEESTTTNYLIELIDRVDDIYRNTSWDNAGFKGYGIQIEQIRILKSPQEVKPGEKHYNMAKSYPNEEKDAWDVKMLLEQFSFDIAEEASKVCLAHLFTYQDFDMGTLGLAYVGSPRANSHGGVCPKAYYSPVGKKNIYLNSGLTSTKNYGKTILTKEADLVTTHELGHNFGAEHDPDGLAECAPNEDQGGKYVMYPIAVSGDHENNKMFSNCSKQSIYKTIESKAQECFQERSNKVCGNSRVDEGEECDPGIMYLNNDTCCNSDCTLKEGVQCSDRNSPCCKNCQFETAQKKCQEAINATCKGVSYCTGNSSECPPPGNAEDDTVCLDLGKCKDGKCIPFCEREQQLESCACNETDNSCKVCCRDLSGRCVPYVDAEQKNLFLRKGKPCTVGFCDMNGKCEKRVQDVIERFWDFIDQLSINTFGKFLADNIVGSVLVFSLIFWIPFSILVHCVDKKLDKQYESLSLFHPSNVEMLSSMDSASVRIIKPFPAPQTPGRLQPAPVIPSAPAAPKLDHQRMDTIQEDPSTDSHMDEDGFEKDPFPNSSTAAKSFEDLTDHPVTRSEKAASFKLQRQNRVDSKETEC
# Sequence of Peroxisome proliferator-activated receptor gamma/Nuclear receptor coactivator 2 (P37231 whole entry): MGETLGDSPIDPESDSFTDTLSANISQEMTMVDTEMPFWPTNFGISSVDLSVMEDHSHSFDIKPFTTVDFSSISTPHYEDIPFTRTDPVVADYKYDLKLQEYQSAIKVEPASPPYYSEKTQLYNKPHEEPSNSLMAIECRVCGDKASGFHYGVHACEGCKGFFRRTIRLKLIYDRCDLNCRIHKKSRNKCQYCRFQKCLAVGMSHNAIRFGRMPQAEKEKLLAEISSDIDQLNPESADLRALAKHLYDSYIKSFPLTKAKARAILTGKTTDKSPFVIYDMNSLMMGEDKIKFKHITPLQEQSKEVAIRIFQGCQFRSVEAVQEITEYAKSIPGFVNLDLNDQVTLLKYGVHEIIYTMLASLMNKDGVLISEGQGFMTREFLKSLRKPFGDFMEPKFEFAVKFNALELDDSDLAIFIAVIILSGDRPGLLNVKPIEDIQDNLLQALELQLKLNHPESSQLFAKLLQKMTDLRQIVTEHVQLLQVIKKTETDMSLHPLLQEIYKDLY
# Sequence of Peroxisome proliferator-activated receptor gamma/Nuclear receptor coactivator 2 (Q15596 whole entry, further chain): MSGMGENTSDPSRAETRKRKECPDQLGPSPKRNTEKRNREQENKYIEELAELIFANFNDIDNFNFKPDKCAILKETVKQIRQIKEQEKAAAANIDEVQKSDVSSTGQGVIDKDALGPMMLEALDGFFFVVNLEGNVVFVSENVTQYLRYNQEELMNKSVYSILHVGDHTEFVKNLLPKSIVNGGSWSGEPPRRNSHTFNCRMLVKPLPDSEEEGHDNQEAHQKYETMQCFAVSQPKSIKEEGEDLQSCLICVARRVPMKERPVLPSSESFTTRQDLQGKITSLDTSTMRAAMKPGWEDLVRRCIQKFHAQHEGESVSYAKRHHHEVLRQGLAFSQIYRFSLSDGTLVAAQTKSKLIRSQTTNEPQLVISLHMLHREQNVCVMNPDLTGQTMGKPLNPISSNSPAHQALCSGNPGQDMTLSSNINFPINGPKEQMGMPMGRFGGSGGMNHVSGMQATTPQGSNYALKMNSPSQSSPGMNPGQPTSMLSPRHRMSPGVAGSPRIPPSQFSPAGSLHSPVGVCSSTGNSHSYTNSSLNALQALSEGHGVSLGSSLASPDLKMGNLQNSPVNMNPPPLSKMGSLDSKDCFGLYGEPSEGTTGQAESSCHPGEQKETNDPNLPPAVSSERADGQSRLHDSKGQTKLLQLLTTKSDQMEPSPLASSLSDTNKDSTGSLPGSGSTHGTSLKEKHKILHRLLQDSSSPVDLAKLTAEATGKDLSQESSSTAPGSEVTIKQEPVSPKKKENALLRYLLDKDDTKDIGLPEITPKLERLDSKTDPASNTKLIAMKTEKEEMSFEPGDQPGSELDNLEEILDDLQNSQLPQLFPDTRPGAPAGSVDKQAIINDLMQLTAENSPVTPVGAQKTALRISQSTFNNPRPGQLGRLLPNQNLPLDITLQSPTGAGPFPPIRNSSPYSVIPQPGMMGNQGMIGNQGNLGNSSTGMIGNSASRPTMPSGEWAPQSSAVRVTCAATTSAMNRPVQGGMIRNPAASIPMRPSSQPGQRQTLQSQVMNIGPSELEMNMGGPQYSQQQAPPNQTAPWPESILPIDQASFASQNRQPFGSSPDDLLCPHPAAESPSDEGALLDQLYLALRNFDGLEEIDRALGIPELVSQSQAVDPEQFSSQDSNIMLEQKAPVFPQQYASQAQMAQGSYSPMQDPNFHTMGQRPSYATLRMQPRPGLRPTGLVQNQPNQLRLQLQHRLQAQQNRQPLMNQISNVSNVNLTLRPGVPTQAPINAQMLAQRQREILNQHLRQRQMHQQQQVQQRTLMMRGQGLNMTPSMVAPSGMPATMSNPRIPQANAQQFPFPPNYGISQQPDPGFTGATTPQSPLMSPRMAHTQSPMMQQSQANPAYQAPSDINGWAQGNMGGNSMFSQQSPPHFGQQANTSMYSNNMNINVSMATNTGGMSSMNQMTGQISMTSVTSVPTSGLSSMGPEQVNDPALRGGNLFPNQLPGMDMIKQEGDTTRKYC
# Sequence of Nonstructural protein 1 (Q194T2 whole entry): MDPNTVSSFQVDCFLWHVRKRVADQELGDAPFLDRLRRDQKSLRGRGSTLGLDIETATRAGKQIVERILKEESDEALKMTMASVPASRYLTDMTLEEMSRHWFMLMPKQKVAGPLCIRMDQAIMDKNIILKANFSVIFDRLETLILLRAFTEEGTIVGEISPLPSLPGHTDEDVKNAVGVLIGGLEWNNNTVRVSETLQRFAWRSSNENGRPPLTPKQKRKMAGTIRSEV
# Sequence of C-C chemokine receptor type 6 (P51684 whole entry): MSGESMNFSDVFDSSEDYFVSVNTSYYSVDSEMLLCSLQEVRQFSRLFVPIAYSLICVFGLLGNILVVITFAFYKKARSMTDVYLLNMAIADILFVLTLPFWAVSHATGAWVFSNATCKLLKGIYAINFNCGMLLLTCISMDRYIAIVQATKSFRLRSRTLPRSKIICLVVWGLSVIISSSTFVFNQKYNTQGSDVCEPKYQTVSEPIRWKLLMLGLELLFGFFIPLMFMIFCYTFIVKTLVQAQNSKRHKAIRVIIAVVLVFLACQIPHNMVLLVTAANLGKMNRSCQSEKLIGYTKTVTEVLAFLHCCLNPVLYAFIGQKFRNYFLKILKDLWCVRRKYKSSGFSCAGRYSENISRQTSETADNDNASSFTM
compound,measurement,setting,value
CCOC(=O)C1=C[C@@H](c2ccccc2)N(S(=O)(=O)c2ccc(C)cc2)[C@H]1c1ccccc1Cl,AC50,[1],> 30 µM (inactive)
Cc1cc2cc(CNS(=O)(=O)c3ccc4ccccc4c3)ccc2n1C,IC50,Fibrinogen beta chain [2],21 µM (inactive)
same,EC50,[3],6.2 µM (active)
same,IC50,[4],> 66 µM (inactive)
same,EC50,[5],6.29 µM (active)
same,EC50,[6],14.4 µM (not active)
same,IC50,[7],46.5 µM (inactive)
same,IC50,Fibrinogen beta chain [8],> 83.3 µM (inactive)
same,IC50,Nonstructural protein 1,46.8 µM (active)
COc1cc(C(=O)NC2CC3CCCC(C2)N3CC(=O)Nc2ccc(Cl)cc2)cc(OC)c1OC (stereo not given),IC50,[9],> 79 µM (inactive)
same,IC50,[10],> 79 µM (inactive)
CCOC(=O)CNC(=O)CSc1ncnc2c1cnn2-c1ccc(OC)cc1,AC50,[11],34.4 µM (active)
same,AC50,HEK293,34.4 µM (active)
Cc1cccc(C(=O)Nc2cccc(C(=O)Nc3ccccc3)c2)c1,IC50,[12],1.14 µM (active)
O=C(NNc1ccccc1Br)C(O)(c1cccc(C(F)(F)F)c1)c1cccc(C(F)(F)F)c1,EC50,Streptococcus,9.39 µM (active)
same,EC50,[13],3.48 µM (active)
same,IC50,[14],> 69.5 µM (inactive)
same,EC50,Streptokinase A,2.13 µM (active)
same,AC50,INS1,6.89 µM (active)
CCCCn1nnnc1C1(C)CCC(=O)N1CCCn1ccnc1 (stereo not given),IC50,[15],> 43.7 µM (inactive)
